Source: patent US7585895B2, “Therapeutic substituted cyclopentanes” (Allergan, Inc., priority 2005, dated 2009)

What was measured:
[1] = target: T1, EP4 receptors (Homo sapiens, UniProt P35408); experiment: Radioligand binding, [3H]PGE2, EP4 (Ki); settings: HEK-293 cells stably expressing EP4, [3H]PGE2
T1 construct: expressed in transfected cells; membrane pellet
Experimental: HEK-293 cells stably expressing the human or feline FP receptor, or EP1, EP2, or EP4 receptors were washed with TME buffer, scraped from the bottom of the flasks, and homogenized for 30 sec using a Brinkman PT 10/35 polytron. TME buffer was added to achieve a final 40 ml volume in the centrifuge tubes (the composition of TME is 100 mM TRIS base, 20 mM MgCl2, […]; 10N HCl is added to achieve a pH of 7.4).
The cell homogenate was centrifuged at 19000 r.p.m. for 20 min at 4° C using a Beckman Ti-60 rotor. The resultant pellet was resuspended in TME buffer to give a final 1 mg/ml protein concentration, as determined by Biorad assay. Radioligand binding competition assays vs. [^3H-]17-phenyl PGF2α. (5 nM) were performed in a 100 μl volume for 60 min. Binding reactions were started by adding plasma membrane fraction. The reaction was terminated by the addition of 4 ml ice-cold TRIS-HCl buffer and rapid filtration through glass fiber GF/B filters using a Brandel cell harvester. The filters were washed 3 times with ice-cold buffer and oven dried for one hour.
[^3H-] PGE2 (specific activity 180 Ci mmol) was used as the radioligand for EP receptors. [^3H] 17-phenyl PGF2α, was employed for FP receptor binding studies. Binding studies employing EP1, EP2, EP4 and FP receptors were performed in duplicate in at least three separate experiments. A 200 μl assay volume was used. Incubations were for 60 min at 25° C. and were terminated by the addition of 4 ml of ice-cold 50 mM TRIS-HCl, followed by rapid filtration through Whatman GF/B filters and three additional 4 ml washes in a cell harvester (Brandel). Competition studies were performed using a final concentration of 5 nM [^3H]-PGE2, or 5 nM [^3H] 17-phenyl PGF2αand non-specific binding determined with 10^−5M of unlabeled PGE2, or 17-phenyl PGF2α, according to receptor subtype studied.

[2] = target: T2, hEP2/Gqs5 (Homo sapiens, UniProt P43116); experiment: FLIPR calcium signal, EP2; type: cell-based; settings: HEK-293(EBNA), value outside parentheses, read-out: Ca2+ Signal-EC50 (nM) EP2
T2 construct: expressed in transfected cells
T2 sequence (P43116 whole entry): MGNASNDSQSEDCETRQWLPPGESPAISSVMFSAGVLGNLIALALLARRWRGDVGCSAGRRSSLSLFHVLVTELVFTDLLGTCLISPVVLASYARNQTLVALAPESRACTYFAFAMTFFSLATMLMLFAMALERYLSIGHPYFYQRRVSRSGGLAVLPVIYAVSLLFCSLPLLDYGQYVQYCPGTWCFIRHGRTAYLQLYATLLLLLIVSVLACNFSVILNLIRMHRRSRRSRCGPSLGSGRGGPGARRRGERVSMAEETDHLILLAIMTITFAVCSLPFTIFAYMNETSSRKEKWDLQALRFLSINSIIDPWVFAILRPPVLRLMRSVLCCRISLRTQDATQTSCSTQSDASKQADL
Experimental: (§1) HEK-293(EBNA) cells, stably expressing one type or subtype of recombinant human prostaglandin receptors (prostaglandin receptors expressed: hDP/Gqs5; hEP1; hEP2/Gqs5; hEP3A/Gqi5; hEP4/Gqs5; hFP; hIP; hTP), were cultured in 100 mm culture dishes in high-glucose DMEM medium containing 10% fetal bovine serum, 2 mM 1-glutamine, 250 μg/ml geneticin (G418) and 200 μg/ml hygromycin B as selection markers, and 100 units/ml penicillin G, 100 μg/ml streptomycin and 0.25 μg/ml amphotericin B.
(§2) Cells were seeded at a density of 5×10^4 cells per well in Biocoat® Poly-D-lysine-coated black-wall, clear-bottom 96-well plates (Becton-Dickinson) and allowed to attach overnight in an incubator at 37° C. Cells were then washed two times with HBSS-HEPES buffer (Hanks Balanced Salt Solution without bicarbonate and phenol red, 20 mM HEPES, pH 7.4) using a Denley Cellwash plate washer (Labsystems). After 45 minutes of dye-loading in the dark, using the calcium-sensitive dye Fluo-4 AM at a final concentration of 2 μM, plates were washed four times with HBSS-HEPES buffer to remove excess dye leaving 100 μl in each well. Plates were re-equilibrated to 37° C. for a few minutes.
(§3) Cells were excited with an Argon laser at 488 nm, and emission was measured through a 510-570 nm bandwidth emission filter (FLIPR™, Molecular Devices, Sunnyvale, Calif.). Drug solution was added in a 50 μl volume to each well to give the desired final concentration. The peak increase in fluorescence intensity was recorded for each well. On each plate, four wells each served as negative (HBSS-HEPES buffer) and positive controls (standard agonists: BW245C (hDP); PGE2 (HEP1; hEP2/Gqs5; hEP3A/Gqi5; hEP4/Gqs5); PGF2α (hFP); carbacyclin (hIP); U-46619 (hTP), depending on receptor). The peak fluorescence change in each drug-containing well was then expressed relative to the controls.
(§4) Compounds were tested in a high-throughput (HTS) or concentration-response (CoRe) format. In the HTS format, forty-four compounds per plate were examined in duplicates at a concentration of 10^−5 M. To generate concentration-response curves, four compounds per plate were tested in duplicates in a concentration range between 10^−5 and 10^−11 M. The duplicate values were averaged. In either, HTS or CoRe format each compound was tested on at least 3 separate plates using cells from different passages to give an n≧3.

[3] = target: T3, hEP3A/Gqi5 (Homo sapiens, UniProt P43115); experiment: FLIPR calcium signal, EP3; type: cell-based; settings: HEK-293(EBNA); for EC50: read-out: Ca2+ Signal-EC50 (nM) EP3
T3 construct: expressed in transfected cells
T3 sequence (P43115 1-390): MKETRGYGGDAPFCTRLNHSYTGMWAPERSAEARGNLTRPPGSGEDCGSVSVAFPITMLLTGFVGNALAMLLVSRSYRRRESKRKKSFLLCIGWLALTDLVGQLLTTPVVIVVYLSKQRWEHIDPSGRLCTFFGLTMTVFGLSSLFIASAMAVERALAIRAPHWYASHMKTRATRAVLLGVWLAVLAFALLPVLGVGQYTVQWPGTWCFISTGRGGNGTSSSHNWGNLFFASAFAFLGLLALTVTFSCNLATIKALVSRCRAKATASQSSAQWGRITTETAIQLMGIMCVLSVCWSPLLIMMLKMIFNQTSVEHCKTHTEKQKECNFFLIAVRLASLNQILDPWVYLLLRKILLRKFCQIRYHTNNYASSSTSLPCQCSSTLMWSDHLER
Experimental: as §1, §2, §3, §4

[4] = target: T4, hEP4/Gqs5 (Homo sapiens, UniProt P35408); experiment: FLIPR calcium signal, EP4; type: cell-based; settings: HEK-293(EBNA); for EC50: read-out: Ca2+ Signal-EC50 (nM) EP4
T4 construct: expressed in transfected cells
T4 sequence (P35408 whole entry): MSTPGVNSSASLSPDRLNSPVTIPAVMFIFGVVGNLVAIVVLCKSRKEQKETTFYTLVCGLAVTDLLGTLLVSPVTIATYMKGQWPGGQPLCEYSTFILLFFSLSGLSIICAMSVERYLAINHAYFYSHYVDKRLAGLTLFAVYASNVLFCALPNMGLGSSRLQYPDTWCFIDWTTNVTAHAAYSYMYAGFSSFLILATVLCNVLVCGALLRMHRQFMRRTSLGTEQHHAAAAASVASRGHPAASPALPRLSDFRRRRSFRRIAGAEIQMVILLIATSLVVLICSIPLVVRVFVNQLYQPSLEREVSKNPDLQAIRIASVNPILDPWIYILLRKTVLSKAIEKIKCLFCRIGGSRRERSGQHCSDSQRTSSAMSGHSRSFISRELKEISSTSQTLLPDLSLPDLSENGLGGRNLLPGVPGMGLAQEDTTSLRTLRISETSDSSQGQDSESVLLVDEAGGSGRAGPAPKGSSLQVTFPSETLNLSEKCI
Experimental: as §1, §2, §3, §4

[5] = target: T5, hDP/Gqs5 (Homo sapiens, UniProt Q13258); experiment: FLIPR calcium signal, DP; type: cell-based; settings: HEK-293(EBNA)
T5 construct: expressed in transfected cells
T5 sequence (Q13258 1-359): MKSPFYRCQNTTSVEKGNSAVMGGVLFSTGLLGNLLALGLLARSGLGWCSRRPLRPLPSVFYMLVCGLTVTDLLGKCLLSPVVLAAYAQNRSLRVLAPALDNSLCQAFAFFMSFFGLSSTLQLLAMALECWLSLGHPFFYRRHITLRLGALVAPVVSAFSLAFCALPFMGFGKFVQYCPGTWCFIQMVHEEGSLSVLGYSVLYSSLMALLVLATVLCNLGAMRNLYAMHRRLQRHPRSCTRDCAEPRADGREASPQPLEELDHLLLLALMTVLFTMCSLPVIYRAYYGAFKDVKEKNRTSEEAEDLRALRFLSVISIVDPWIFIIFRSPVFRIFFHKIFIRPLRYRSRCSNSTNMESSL
Experimental: as §1, §2, §3, §4

T1 sequence (P35408 whole entry): as the sequence (P35408 whole entry) above

| Structure (SMILES) | Ki [1] [nM] | EC50 [2] [nM] | EC50 [3] [nM] | Ca2+ Signal-EC50 (nM) EP4 [4] | Ca2+ Signal-EC50 (nM) DP [5] | EC50 [4] [nM] | Ca2+ Signal-EC50 (nM) EP3 [3] | BINDING-Ki (nM) EP4 [1] |
| --- | --- | --- | --- | --- | --- | --- | --- | --- |
| CCCCC(O)c1cccc([C@@H]2[C@@H](C/C=C\CCCC(=O)O)[C@H](Cl)C[C@H]2O)c1 (stereo partly drawn) [Entry 30, (Z)-7-{(1R,2S,3R,5R)-5-Chloro-3-hydroxy-2-[3-(1-hydroxy-pentyl)-phenyl]-cyclopentyl}-hept-5-enoic acid] | > 10000 | 68 | 23 | not active | not active |  |  |  |
| CCCCCC(O)c1ccc([C@@H]2[C@@H](C/C=C\CCCC(=O)O)[C@@H](Cl)C[C@H]2O)cc1 (stereo partly drawn) [Entry 9, (Z)-7-{(1R,2S,3R,5S)-5-Chloro-3-hydroxy-2-[4-(1-hydroxy-hexyl)-phenyl]-cyclopentyl}-hept-5-enoic acid] | 4590 | 242 | 7230 |  | not active | 947 |  |  |
| CCCCCC(O)c1cccc([C@@H]2[C@@H](C/C=C\CCCC(=O)O)[C@H](Cl)C[C@H]2O)c1 (stereo partly drawn) [Entry 29, (Z)-7-{(1R,2S,3R,5R)-5-Chloro-3-hydroxy-2-[3-(1-hydroxy-hexyl)-phenyl]-cyclopentyl}-hept-5-enoic acid] | > 10000 | 119 | 37 | not active | not active |  |  |  |
| CCCCCCc1ccc([C@@H]2[C@@H](C/C=C\CCCC(=O)O)[C@H](Cl)C[C@H]2O)cc1 [Entry 33, (Z)-7-[(1R,2S,3R,5R)-5-Chloro-2-(4-hexyl-phenyl)-3-hydroxy-cyclopentyl]-hept-5-enoic acid] | > 10000 | 26 |  |  | not active | > 10000 | not active |  |
| CCCCCCC(O)c1ccc([C@@H]2[C@@H](C/C=C\CCCC(=O)O)[C@H](Cl)C[C@H]2O)cc1 (stereo partly drawn) [Entry 25, (Z)-7-{(1R,2S,3R,5R)-5-Chloro-3-hydroxy-2-[4-(1-hydroxy-heptyl)-phenyl]-cyclopentyl}-hept-5-enoic acid] | 2260 | 58 | 5930 | not active | not active |  |  |  |
| CC(C)(C)CCCC(O)c1ccc([C@@H]2[C@@H](CCCCCCC(=O)O)[C@H](Cl)C[C@H]2O)cc1 (mixture of isomers) [Entry 20, 7-{(1R,2S,3R,5R)-5-Chloro-3-hydroxy-2-[4-(1-hydroxy-5,5-dimethyl-hexyl)-phenyl]-cyclopentyl}-heptanoic acid] | 3800 | 5390 | 4450 |  | not active | 10700 |  |  |
| O=C(O)CCCCCC[C@@H]1[C@@H](c2ccc(C(O)CCc3ccccc3)cc2)[C@H](O)C[C@H]1Cl (stereo partly drawn) [Entry 24, 7-{(1R,2S,3R,5R)-5-Chloro-3-hydroxy-2-[4-(1-hydroxy-3-phenyl-propyl)-phenyl]-cyclopentyl}-heptanoic acid] | > 10000 | 735 | 8830 |  | not active | > 10000 |  |  |
| O=C(O)CCC/C=C\C[C@@H]1[C@@H](c2ccc(C(O)c3ccccc3)cc2)[C@H](O)C[C@H]1Cl (stereo partly drawn) [Entry 28, (Z)-7-{(1R,2S,3R,5R)-5-Chloro-3-hydroxy-2-[4-(hydroxy-phenyl-methyl)-phenyl]-cyclopentyl}-hept-5-enoic acid] |  | 142 |  | not active |  |  | not active | not active |
| CCCCCC(O)c1ccc([C@@H]2[C@@H](C/C=C\CCCC(=O)O)[C@H](F)C[C@H]2O)cc1 (mixture of isomers) [Entry 8, (Z)-7-{(1R,2S,3R,5R)-5-Fluoro-3-hydroxy-2-[4-(1-hydroxy-hexyl)-phenyl]-cyclopentyl}-hept-5-enoic acid] | > 10000 | 53 | 1450 | not active | not active |  |  |  |
| CCCCCC(O)c1ccc([C@@H]2[C@@H](Cc3cccc(CCC(=O)O)c3)[C@H](Cl)C[C@H]2O)cc1 (stereo partly drawn) [Entry 3, 3-(3-{(1R,2S,3R,5R)-5-Chloro-3-hydroxy-2-[4-(1-hydroxy-hexyl)-phenyl]-cyclopentylmethyl}-phenyl)-propionic acid] | 3950 | 158 | 4670 |  | not active |  |  |  |
| CCCCCC(O)c1ccc([C@@H]2[C@@H](CCCc3ncc(C(=O)O)s3)[C@H](Cl)C[C@H]2O)cc1 (stereo partly drawn) [Entry 5, 2-(3-{(1R,2S,3R,5R)-5-Chloro-3-hydroxy-2-[4-(1-hydroxy-hexyl)-phenyl]-cyclopentyl}-propyl)-thiazole-5-carboxylic acid] |  | 619 |  |  | not active | > 10000 | not active |  |
| CCCCC(O)c1ccc([C@@H]2[C@@H](C/C=C\CCCC(=O)O)[C@H](Cl)C[C@H]2O)cc1 (mixture of isomers) [Entry 27, (Z)-7-{(1R,2S,3R,5R)-5-Chloro-3-hydroxy-2-[4-(1-hydroxy-pentyl)-phenyl]-cyclopentyl}-hept-5-enoic acid] |  |  |  | not active | not active |  | not active |  |
| CCCCCC(O)c1ccc([C@@H]2[C@@H](C/C=C\CCCC(=O)O)[C@H](Cl)C[C@@H]2O)cc1 (stereo partly drawn) [Entry 34, (Z)-7-{(1R,2S,3S,5R)-5-Chloro-3-hydroxy-2-[4-(1-hydroxy-hexyl)-phenyl]-cyclopentyl}-hept-5-enoic acid] |  | 16 | 25 | not active | not active |  |  |  |
